# Test results from patent US11866431B2, “Bicyclic compounds” (Vivace Therapeutics, Inc., priority 2018, dated 2024).
# Like-named read-outs stand apart in the source and are kept apart here.
# Tested on: 8XTBD luciferase reporter (YAP reporter) in HEK293T cells
# Assay: YAP Reporter Assay
# Assay type: cell-based
# Details: Homo sapiens, HEK-293T
# Method: HEK293T cells stably transfected with 8XTBD luciferase reporter and pRLTK in 384-well plates were treated with the test compounds, starting from 3 μM (final concentration in assay plate), 1:3 dilution, and 10 points in quadruplicates. Post 24-hr incubation with compounds at 37° C. and 5% CO2, cells were lysed and 8XTBD-driven firefly luciferase and control TK-driven renilla luciferase activities were measured using Promega Dual-Luciferase Reporter Assay System.
# Reagents: The reagents used for this study are: DMEM: Invitrogen #11960077, Dual-Glo Luciferase Assay System: Promega-E2980, Puromycin Dihydrochloride: Invitrogen-A1113803, 384-well plate: PerkinElmer-6007480, L-GLUTAMINE: Invitrogen-25030164, Hygromycin B: Invitrogen-10687010, and Penicillin-Streptomycin: Merk-TMS-AB2-C
# Media: The media used for this assay were: Culture Medium: DMEM+1 ug/mL puromycin+200 ug/mL hygromycin (with 10% FBS+1 mM L-glutamine); and Assay Medium: DMEM (with 10% FBS+1 mM L-glutamine+1×P/S).
# Cell Plating: The appropriate media was warmed at 37° C. by water bath: Culture Medium, Assay Medium, 1*D-PBS, 0.05% trypsin-EDTA. The cells were trypsinized after removing all media, then washed with 1*sterile D-PBS and then with 2 ml 0.05% trypsin-EDTA. The cells were then incubated at RT for one minute. Then 10 ml/75 cm2 flask Assay Medium was added to each flask. Using a 10 ml pipette, the cells were then gently resuspended in the media, until the clumps completely disappeared. The cells were then transferred into 50 ml centrifuge tubes and were centrifuged at 800 rpm for 5 mins. The medium was removed and the cells were resuspended with Assay Medium. An aliquot of cells was used to count the cell density (cells/ml). The cell suspension was then diluted with Assay Medium to a concentration of 6×10^4 cells/ml. 50 ul cells suspension was then plated to 384-well plate (PerkinElmer-6007480), 3×10^3 cells/well and the cells were incubated in an incubator at 37° C. 5% CO2.
# Compound Treatment: In the afternoon (incubation of the plate with 3-4 hrs), the test compounds were added by Echo, starting from 3 uM (final concentration in the assay plate), 1:3 dilution, 10 points, quadruplicates. The plate was placed at 37° C. 5% CO2 incubator for 24 hrs.
# Detection: The Dual-Glo Luciferase Reagent was prepared by transferring the contents of one bottle of Dual-Glo Luciferase Buffer to one bottle of Dual-Glo Luciferase Substrate to create the Dual-Glo Luciferase Reagent. Mixing was performed by inversion until the substrate was thoroughly dissolved. After mixing, the reagent was aliquoted into 15 ml tubes. In the afternoon (24 hrs post compound treatment), the DMEM+ medium in the 384 well plates were aspirated by Microplate Washer.
# Measuring firefly luciferase activity: 20 ul Dual-Glo Luciferase Reagent was added to the 384-well plates. The plates were protected from light to prevent interference with the assay. The plates were shaken for 1 min followed centrifuging plates at 1000 rpm for 30 seconds. After waiting at least 10 minutes, the firefly luminescence was measured by Envision.
# Measuring renilla luciferase activity: 20 ul Stop-Glo Reagent was added to the 384-well plates. The plates were shaken for 1 min and then centrifuged at 1000 rpm for 30 seconds. After waiting at least 10 minutes, the renilla luminescence was measured by Envision.
# Compound IC50 and maximum inhibition on the firefly luciferase and renilla luciferase activities were reported separately.
# [1] = HEK293T cells stably transfected with 8XTBD luciferase reporter and pRLTK, 24-hr incubation, top concentration 3 μM, read-out: Firefly Luciferase IC50
# [2] = 24 h, read-out: Firefly Luciferase IC50 (μM)
Structure (SMILES),IC50 [1] [µM],IC50 [2] [µM]
"CC(C)NC(=O)c1ccc2c(-c3ccc(C(F)(F)F)cc3)cc(Br)cc2c1 [Compound 32, 7-bromo-N-isopropyl-5-[4-(trifluoromethyl)phenyl]naphthalene-2-carboxamide]",< 0.1,
"CC(C)NC(=O)c1ccc2c(-c3ccc(C(F)(F)F)cc3)cc(Cl)c(N)c2c1 [Compound 33, 8-amino-7-chloro-N-isopropyl-5-(4-(trifluoromethyl)phenyl)-2-naphthamide]",< 0.1,
"CC(C)NC(=O)c1ccc2c(-c3ccc(C(F)(F)F)cc3)ccc(N(C)S(C)(=O)=O)c2c1 [Compound 34, N-isopropyl-8-(N-methylmethylsulfonamido)-5-(4-(trifluoromethyl)phenyl)-2-naphthamide]",1 to 3,
"CC(C)NC(=O)c1ccc2c(-c3ccc(C(F)(F)F)cc3)cc3onnc3c2c1 [Compound 35, N-isopropyl-5-[4-(trifluoromethyl)phenyl]benzo[e][1,2,3]benzoxadiazole-8-carboxamide]",0.1 to 1,
"CC(C)NC(=O)c1ccc2c(-c3ccc(C(F)(F)F)cc3)cc(Cl)cc2c1 [Compound 36, 7-chloro-N-isopropyl-5-(4-(trifluoromethyl)phenyl)-2-naphthamide]",< 0.1,
"COc1ccc(-c2ccc(C(F)(F)F)cc2)c2ccc(C(=O)NC(C)C)cc12 [Compound 37, N-isopropyl-8-methoxy-5-[4-(trifluoromethyl)phenyl]naphthalene-2-carboxamide]",< 0.1,
"C#Cc1cc(-c2ccc(C(F)(F)F)cc2)c2ccc(C(=O)NC(C)C)cc2c1 [Compound 38, 7-ethynyl-N-isopropyl-5-(4-(trifluoromethyl)phenyl)-2-naphthamide]",< 0.1,
"COc1cc(-c2ccc(C(F)(F)F)cc2)c2ccc(C(=O)NC(C)C)cc2c1 [Compound 39, N-isopropyl-7-methoxy-5-[4-(trifluoromethyl)phenyl]naphthalene-2-carboxamide]",< 0.1,
"CC(=O)NCCOCCOCCNC(=O)c1ccc2c(-c3ccc(C(F)(F)F)cc3)cccc2c1 [Compound 40, N-(2-(2-(2-acetamidoethoxy)ethoxy)ethyl)-5-(4-(trifluoromethyl)phenyl)-2-naphthamide]",< 0.1,
"Cc1cc(-c2ccc(C(F)(F)F)cc2)c2ccc(C(=O)NC(C)C)cc2c1 [Compound 41, N-isopropyl-7-methyl-5-(4-(trifluoromethyl)phenyl)-2-naphthamide]",< 0.1,
"CSc1cc(-c2ccc(C(F)(F)F)cc2)c2ccc(C(=O)NC(C)C)cc2c1 [Compound 42, N-isopropyl-7-(methylthio)-5-(4-(trifluoromethyl)phenyl)-2-naphthamide]",< 0.1,
"CC(C)NC(=O)c1ccc2c(-c3ccc(C(F)(F)F)cc3)cc(C3CC3)cc2c1 [Compound 43, 7-cyclopropyl-N-isopropyl-5-[4-(trifluoromethyl)phenyl]naphthalene-2-carboxamide]",< 0.1,
"CC(C)NC(=O)c1ccc2c(-c3ccc(C(F)(F)F)cc3)cc(N)cc2c1 [Compound 44, 7-amino-N-isopropyl-5-[4-(trifluoromethyl)phenyl]naphthalene-2-carboxamide]",< 0.1,
"CC(C)NC(=O)c1ccc2c(-c3ccc(C(F)(F)F)cc3)cc([S+](C)[O-])cc2c1 (centres unmarked) [Compound 45, N-isopropyl-7-methylsulfinyl-5-[4-(trifluoromethyl)phenyl]naphthalene-2-carboxamide]",0.1 to 1,
"CC(C)NC(=O)c1ccc2c(-c3ccc(C(F)(F)F)cc3)cc(S(C)(=O)=O)cc2c1 [Compound 46, N-isopropyl-7-methylsulfonyl-5-[4-(trifluoromethyl)phenyl]naphthalene-2-carboxamide]",< 0.1,
"CCc1cc(-c2ccc(C(F)(F)F)cc2)c2ccc(C(=O)NC(C)C)cc2c1 [Compound 47, 7-ethyl-N-isopropyl-5-(4-(trifluoromethyl)phenyl)-2-naphthamide]",< 0.1,

Structure (SMILES),IC50 [1] [µM],IC50 [2] [µM]
"CC(=O)Nc1cc(-c2ccc(C(F)(F)F)cc2)c2ccc(C(=O)NC(C)C)cc2c1 [Compound 48, 7-acetamido-N-isopropyl-5-(4-(trifluoromethyl)phenyl)-2-naphthamide]",0.1 to 1,
"CC(C)(C)OC(=O)NCCOCCOCCNC(=O)c1ccc2c(-c3ccc(C(F)(F)F)cc3)cccc2c1 [Compound 49, Tert-Butyl (2-(2-(2-(5-(4-(trifluoromethyl)phenyl)-2-naphthamido)ethoxy)ethoxy)ethyl)carbamate]",0.1 to 1,
"NCCOCCOCCNC(=O)c1ccc2c(-c3ccc(C(F)(F)F)cc3)cccc2c1 [Compound 50, N-(2-(2-(2-aminoethoxy)ethoxy)ethyl)-5-(4-(trifluoromethyl)phenyl)-2-naphthamide]",0.1 to 1,
"CC(=O)N(C)c1cc(-c2ccc(C(F)(F)F)cc2)c2ccc(C(=O)NC(C)C)cc2c1 [Compound 51, N-isopropyl-7-(N-methylacetamido)-5-(4-(trifluoromethyl)phenyl)-2-naphthamide]",0.1 to 1,
"CC(C)NC(=O)c1ccc2c(-c3ccc(C(F)(F)F)cc3)cc(NS(C)(=O)=O)cc2c1 [Compound 52, N-isopropyl-7-(methylsulfonamido)-5-(4-(trifluoromethyl)phenyl)-2-naphthamide]",< 0.1,
"CC(C)NC(=O)c1ccc2c(-c3ccc(C(F)(F)F)cc3)cc(N(C)S(C)(=O)=O)cc2c1 [Compound 53, N-isopropyl-7-(N-methylmethylsulfonamido)-5-(4-(trifluoromethyl)phenyl)-2-naphthamide]",0.1 to 1,
"O=C(NCC(F)(F)F)c1ccc2c(-c3ccc(C(F)(F)F)cc3)cccc2c1 [Compound 54, N-(2,2,2-trifluoroethyl)-5-(4-(trifluoromethyl)phenyl)-2-naphthamide]",,< 0.1
"O=C(NC1CC1)c1ccc2c(-c3ccc(C(F)(F)F)cc3)cccc2c1 [Compound 55, N-cyclopropyl-5-(4-(trifluoromethyl)phenyl)-2-naphthamide]",< 0.1,
"O=C(NC(CO)CO)c1ccc2c(-c3ccc(C(F)(F)F)cc3)cccc2c1 [Compound 56, N-(1,3-dihydroxypropan-2-yl)-5-(4-(trifluoromethyl)phenyl)-2-naphthamide]",< 0.1,
"COCCOCCNC(=O)c1ccc2c(-c3ccc(C(F)(F)F)cc3)cccc2c1 [Compound 57, N-(2-(2-methoxyethoxy)ethyl)-5-(4-(trifluoromethyl)phenyl)-2-naphthamide]",0.1 to 1,
"COCCNC(=O)c1ccc2c(-c3ccc(C(F)(F)F)cc3)cccc2c1 [Compound 58, N-(2-methoxyethyl)-5-(4-(trifluoromethyl)phenyl)-2-naphthamide]",< 0.1,
"C[C@@H](CN)NC(=O)c1ccc2c(-c3ccc(C(F)(F)F)cc3)cccc2c1 [Compound 59, (S)—N-(1-aminopropan-2-yl)-5-(4-(trifluoromethyl)phenyl)-2-naphthamide]",0.1 to 1,
"C[C@H](CN)NC(=O)c1ccc2c(-c3ccc(C(F)(F)F)cc3)cccc2c1 [Compound 60, (R)—N-(1-aminopropan-2-yl)-5-(4-(trifluoromethyl)phenyl)-2-naphthamide]",< 0.1,
"O=C(NC(CF)CF)c1ccc2c(-c3ccc(C(F)(F)F)cc3)cccc2c1 [Compound 62, N-(1,3-difluoropropan-2-yl)-5-(4-(trifluoromethyl)phenyl)-2-naphthamide]",0.1 to 1,
"CC(C)NC(=O)c1ccc2c(-c3ccc(C(F)(F)F)cc3)cc3sc(N)nc3c2c1 [Compound 63, 2-amino-N-isopropyl-5-(4-(trifluoromethyl)phenyl)naphtho[1,2-d]thiazole-8-carboxamide]",,< 0.1
"C[C@@H](CN(C)C)NC(=O)c1ccc2c(-c3ccc(C(F)(F)F)cc3)cccc2c1 [Compound 64, (S)—N-(1-(dimethylamino)propan-2-yl)-5-(4-(trifluoromethyl)phenyl)-2-naphthamide]",1 to 3,
